According to patent US8476256B2, “Diazonamide analogs” (Joyant Pharmaceuticals, Inc., priority 2008, dated 2013):

Experiments:
[1] = test system: A2058 (human melanoma) cell line; experiment: Cell viability assay (CELL-TITER-GLO), A2058; format: cell-based; details: A2058 cells, 48 hour treatment, 1 nM to 1 μM
Experimental: (§1) Cell viability assays were run using standard protocols known to those of skill in art. Cells were plated in 96 well plates at the density of 3,000-10,000 cells per well. Twenty four hours later, cells were treated with increasing concentration of test compounds (1 nM to 1 μM). After another 48 hour, cell survival was measured using CELL-TITER-GLO® reagent (Promega) following the protocol provided by the manufacture. The IC50 value was determined as the concentration of test compound that kills 50% of the cell population.
(§2) Cell viability data generated according to the protocol described herein was generated for representative compounds in the A2058 (human melanoma) and U937 (human leukemic monocyte lymphoma) cell lines. The compound of Example 16 (“Compound J”) was used as a reference compound.

[2] = test system: U937 (human leukemic monocyte lymphoma) cell line; experiment: Cell viability assay (CELL-TITER-GLO), U937; format: cell-based; details: U-937, U937 cells, 48 hour treatment, 1 nM to 1 μM
Experimental: as §1, §2

[3] = test system: MDA-MB231 tumor cell line (Breast); experiment: Cell profiling, MDA-MB231; format: cell-based; details: Homo sapiens, MDA-MB-231
Experimental: as §1

[4] = test system: MDA-MB435 tumor cell line (Breast); experiment: Cell profiling, MDA-MB435; format: cell-based; details: Homo sapiens, MDA-MB-435
Experimental: as §1

[5] = test system: Colo205 tumor cell line (Colon); experiment: Cell profiling, Colo205; format: cell-based; details: Homo sapiens, COLO 205
Experimental: as §1

[6] = test system: DLD-1 tumor cell line (Colon); experiment: Cell profiling, DLD-1; format: cell-based; details: Homo sapiens; DLD-1, Colon
Experimental: as §1

[7] = test system: HT29 tumor cell line (Colon); experiment: Cell profiling, HT29; format: cell-based; details: Homo sapiens, HT-29
Experimental: as §1

[8] = test system: Lovo tumor cell line (Colon); experiment: Cell profiling, Lovo; format: cell-based; details: Homo sapiens
Experimental: as §1

[9] = test system: T98G tumor cell line (Glial Cells); experiment: Cell profiling, T98G; format: cell-based; details: Homo sapiens
Experimental: as §1

[10] = test system: HCC1437 tumor cell line (Lung); experiment: Cell profiling, HCC1437; format: cell-based
Experimental: as §1

[11] = test system: HCC44 tumor cell line (Lung); experiment: Cell profiling, HCC44; format: cell-based; details: Homo sapiens
Experimental: as §1

[12] = test system: NCI-H226 tumor cell line (Lung); experiment: Cell profiling, NCI-H226; format: cell-based; details: Homo sapiens
Experimental: as §1

[13] = test system: NCI-H460 tumor cell line (Lung); experiment: Cell profiling, NCI-H460; format: cell-based; details: Homo sapiens
Experimental: as §1

[14] = test system: SKMES-1 tumor cell line (Lung); experiment: Cell profiling, SKMES-1; format: cell-based; details: Homo sapiens, SK-MES-1; SKMES-1, Lung
Experimental: as §1

[15] = test system: BxPC3 tumor cell line (Pancreas); experiment: Cell profiling, BxPC3; format: cell-based; details: Homo sapiens, BXPC-3
Experimental: as §1

[16] = test system: MiaPaca-2 tumor cell line (Pancreas); experiment: Cell profiling, MiaPaca-2; format: cell-based; details: Homo sapiens, MIA PaCa-2; MiaPaca-2, Pancreas
Experimental: as §1

[17] = test system: Panc-1 tumor cell line (Pancreas); experiment: Cell profiling, Panc-1; format: cell-based; details: Homo sapiens; Panc-1, Pancreas
Experimental: as §1

[18] = test system: PL45 tumor cell line (Pancreas); experiment: Cell profiling, PL45; format: cell-based
Experimental: as §1

[19] = test system: SW1990 tumor cell line (Pancreas); experiment: Cell profiling, SW1990; format: cell-based; details: Homo sapiens
Experimental: as §1

[20] = test system: DU145 tumor cell line (Prostate); experiment: Cell profiling, DU145; format: cell-based; details: Homo sapiens, DU-145
Experimental: as §1

[21] = test system: A375 tumor cell line (Skin); experiment: Cell profiling, A375; format: cell-based; details: Homo sapiens, A-375
Experimental: as §1

[22] = test system: G361 tumor cell line (Skin); experiment: Cell profiling, G361; format: cell-based; details: Homo sapiens, G-361
Experimental: as §1

[23] = test system: SKMEL-5 tumor cell line (Skin); experiment: Cell profiling, SKMEL-5; format: cell-based; details: Homo sapiens, SK-MEL-5; SKMEL-5, Skin
Experimental: as §1

[24] = test system: MiaPaca (pancreatic cancer) cells; experiment: MiaPaca xenograft model, tumor free animals; format: in vivo, Athymic nude mice; details: 20 mg/kg, tail vein injection, 6 injections (days 9, 11, 14, 16, 18, 21), at 35 days post tumor cell injection, 7 mice/group
Experimental: Animals: Athymic nude mice, female, 6-7 weeks old, 20-25 g. Animals bearing with 180-400 mg tumors were selected for experiment. 7 mice/group.
Administration: Tail vein injection, 200 μL/mouse, to provide the dose indicated.
Dosing schedule: 6 injections were given on the days indicated post-tumor cell injection.
Controls: Vehicle, Compound J at 20 mg/kg.
Test Compound preparation: Compound J and all test compounds were dissolved in 50% Cremophore/EtOH (1:1) at 10 mg/mL as stock solution. Each compound solution was diluted with saline before injection to the concentration indicated.
Xenograft Model: MiaPaca (pancreatic cancer) cells
Dosing schedule: 6 injections were given on days 9, 11, 14, 16, 18 and 21 post-tumor cell injection.
Test Compounds: Example 23, Example 24, and Example 53, at 20 mg/kg.
For animals treated with the compound of Example 24 at 20 mg/kg, 7 of 7 animals were tumor free at 35 days post tumor cell injection.

[25] = test system: A2058 (human melanoma) cell line; experiment: Cell viability assay (CELL-TITER-GLO), A2058; format: cell-based; details: Table 8 cell profiling, A2058, Skin
[26] = test system: U937 (human leukemic monocyte lymphoma) cell line; experiment: Cell viability assay (CELL-TITER-GLO), U937; format: cell-based; details: U-937, Table 8 cell profiling, U937, Blood

CCC(O)(CC)C(=O)N[C@H]1Cc2ccc3c(c2)C24C5=C(N=C(O5)[C@H](C(C)C)NC1=O)c1ncc(o1)-c1c[nH]c5cccc(c15)-c1cccc2c1NC4O3 (stereo in doubt) [Example 24]
IC50 [1]: 0.105 µM | IC50 [2]: 0.062 µM | IC50 [3]: 234 nM | IC50 [4]: 29 nM | IC50 [5]: 144 nM | IC50 [6]: 515 nM | IC50 [7]: 90 nM | IC50 [8]: 150 nM | IC50 [9]: 67 nM | IC50 [10]: 195 nM | IC50 [11]: 36 nM | IC50 [12]: 104 nM | IC50 [13]: 242 nM | IC50 [14]: 470 nM | IC50 [15]: 213 nM | IC50 [16]: 111 nM | IC50 [17]: 288 nM | IC50 [18]: 113 nM | IC50 [19]: 360 nM | IC50 [20]: 57 nM | IC50 [21]: 162 nM | IC50 [22]: 275 nM | IC50 [23]: 70 nM | Tumor-free animals out of 7 [24]: 7 of 7 | Tumor-free animals out of 7 ([24]; listed as Ex. 24): 7/7 (35) | IC50 [25]: 93 nM | IC50 [26]: 44 nM
